From US20220281848A1, “PYRAZOLE-SUBSTITUTED PYRROLIDINONES AS HERBICIDES” (FMC Corporation, priority 2019, published 2022)

Test system: plants
Test: Test D pre-emergence, other plants of Tables D1 and D3
Type: in vivo
Settings: preemergent, 20 DAA
Method in brief: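 Damage was rated visually from 0 (none) to 100 (total), at 20 DAA for pre-emergence and 15 d for post-emergence. Plants grew from safener-treated seed in a glasshouse at 24/18° C. or 20/16° C. day/night, 65% humidity, watered twice daily.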

**Q.** Which “damage to plant (100=total damage to plant; 0=no damage to plant), ABUTH” value (rate 15) does the source give for `CN1C[C@H](c2nn(C)c3c(F)cccc23)[C@@H](C(=O)Nc2cccc(F)c2F)C1=O` [Compound 2] here?
**A.** 0

**Q.** What about the “damage to plant (100=total damage to plant; 0=no damage to plant), ABUTH” value (rate 30) of the same compound?
**A.** 0

**Q.** And the “damage to plant (100=total damage to plant; 0=no damage to plant), ABUTH” value (rate 60)?
**A.** 0

**Q.** And the “damage to plant (100=total damage to plant; 0=no damage to plant), ABUTH” value (rate 130)?
**A.** 0

**Q.** What about the “damage to plant (100=total damage to plant; 0=no damage to plant), ABUTH” value (rate 250) of the same compound?
**A.** 0

**Q.** And the “damage to plant (100=total damage to plant; 0=no damage to plant), ABUTH” value (rate 500)?
**A.** 20

**Q.** And the “damage to plant (100=total damage to plant; 0=no damage to plant), AMARE” value (rate 15)?
**A.** 0

**Q.** And the “damage to plant (100=total damage to plant; 0=no damage to plant), AMARE” value (rate 30)?
**A.** 0

**Q.** And the “damage to plant (100=total damage to plant; 0=no damage to plant), AMARE” value (rate 60)?
**A.** 0

**Q.** And the “damage to plant (100=total damage to plant; 0=no damage to plant), AMARE” value (rate 130)?
**A.** 0

**Q.** And the “damage to plant (100=total damage to plant; 0=no damage to plant), AMARE” value (rate 250)?
**A.** 0

**Q.** And the “damage to plant (100=total damage to plant; 0=no damage to plant), AMARE” value (rate 500)?
**A.** 0

**Q.** What about the “damage to plant (100=total damage to plant; 0=no damage to plant), BIDPI” value (rate 15) of the same compound?
**A.** 0

**Q.** What about the “damage to plant (100=total damage to plant; 0=no damage to plant), BIDPI” value (rate 30) of the same compound?
**A.** 0

**Q.** What about the “damage to plant (100=total damage to plant; 0=no damage to plant), BIDPI” value (rate 60) of the same compound?
**A.** 0

**Q.** And the “damage to plant (100=total damage to plant; 0=no damage to plant), BIDPI” value (rate 130)?
**A.** 0

**Q.** And the “damage to plant (100=total damage to plant; 0=no damage to plant), BIDPI” value (rate 250)?
**A.** 0

**Q.** And the “damage to plant (100=total damage to plant; 0=no damage to plant), BIDPI” value (rate 500)?
**A.** 0

**Q.** What about the “damage to plant (100=total damage to plant; 0=no damage to plant), BRAPL” value (rate 15) of the same compound?
**A.** 0

**Q.** What about the “damage to plant (100=total damage to plant; 0=no damage to plant), BRAPL” value (rate 30) of the same compound?
**A.** 70

**Q.** What about the “damage to plant (100=total damage to plant; 0=no damage to plant), BRAPL” value (rate 60) of the same compound?
**A.** 80

**Q.** And the “damage to plant (100=total damage to plant; 0=no damage to plant), BRAPL” value (rate 130)?
**A.** 80

**Q.** And the “damage to plant (100=total damage to plant; 0=no damage to plant), BRAPL” value (rate 250)?
**A.** 90

**Q.** And the “damage to plant (100=total damage to plant; 0=no damage to plant), BRAPL” value (rate 500)?
**A.** 90

**Q.** What about the “damage to plant (100=total damage to plant; 0=no damage to plant), CYPES” value (rate 15) of the same compound?
**A.** 0

**Q.** And the “damage to plant (100=total damage to plant; 0=no damage to plant), CYPES” value (rate 30)?
**A.** 0

**Q.** What about the “damage to plant (100=total damage to plant; 0=no damage to plant), CYPES” value (rate 60) of the same compound?
**A.** 0

**Q.** And the “damage to plant (100=total damage to plant; 0=no damage to plant), CYPES” value (rate 130)?
**A.** 0

**Q.** What about the “damage to plant (100=total damage to plant; 0=no damage to plant), CYPES” value (rate 250) of the same compound?
**A.** 0

**Q.** What about the “damage to plant (100=total damage to plant; 0=no damage to plant), CYPES” value (rate 500) of the same compound?
**A.** 0

**Q.** What about the “damage to plant (100=total damage to plant; 0=no damage to plant), DIGSA” value (rate 15) of the same compound?
**A.** 0

**Q.** And the “damage to plant (100=total damage to plant; 0=no damage to plant), DIGSA” value (rate 30)?
**A.** 90

**Q.** What about the “damage to plant (100=total damage to plant; 0=no damage to plant), DIGSA” value (rate 60) of the same compound?
**A.** 90

**Q.** What about the “damage to plant (100=total damage to plant; 0=no damage to plant), DIGSA” value (rate 130) of the same compound?
**A.** 90

**Q.** And the “damage to plant (100=total damage to plant; 0=no damage to plant), DIGSA” value (rate 250)?
**A.** 90

**Q.** What about the “damage to plant (100=total damage to plant; 0=no damage to plant), DIGSA” value (rate 500) of the same compound?
**A.** 90

**Q.** And the “damage to plant (100=total damage to plant; 0=no damage to plant), ECHCG” value (rate 15)?
**A.** 50

**Q.** What about the “damage to plant (100=total damage to plant; 0=no damage to plant), ECHCG” value (rate 30) of the same compound?
**A.** 50

**Q.** What about the “damage to plant (100=total damage to plant; 0=no damage to plant), ECHCG” value (rate 60) of the same compound?
**A.** 80

**Q.** What about the “damage to plant (100=total damage to plant; 0=no damage to plant), ECHCG” value (rate 130) of the same compound?
**A.** 90

**Q.** What about the “damage to plant (100=total damage to plant; 0=no damage to plant), ECHCG” value (rate 250) of the same compound?
**A.** 90

**Q.** What about the “damage to plant (100=total damage to plant; 0=no damage to plant), ECHCG” value (rate 500) of the same compound?
**A.** 90

**Q.** What about the “damage to plant (100=total damage to plant; 0=no damage to plant), ELEIN” value (rate 15) of the same compound?
**A.** 0

**Q.** And the “damage to plant (100=total damage to plant; 0=no damage to plant), ELEIN” value (rate 30)?
**A.** 0

**Q.** And the “damage to plant (100=total damage to plant; 0=no damage to plant), ELEIN” value (rate 60)?
**A.** 0

**Q.** And the “damage to plant (100=total damage to plant; 0=no damage to plant), ELEIN” value (rate 130)?
**A.** 0

**Q.** What about the “damage to plant (100=total damage to plant; 0=no damage to plant), ELEIN” value (rate 250) of the same compound?
**A.** 0

**Q.** And the “damage to plant (100=total damage to plant; 0=no damage to plant), ELEIN” value (rate 500)?
**A.** 0

**Q.** And the “damage to plant (100=total damage to plant; 0=no damage to plant), EPHHL” value (rate 15)?
**A.** 0

**Q.** And the “damage to plant (100=total damage to plant; 0=no damage to plant), EPHHL” value (rate 30)?
**A.** 0

**Q.** And the “damage to plant (100=total damage to plant; 0=no damage to plant), EPHHL” value (rate 60)?
**A.** 0

**Q.** And the “damage to plant (100=total damage to plant; 0=no damage to plant), EPHHL” value (rate 130)?
**A.** 0

**Q.** And the “damage to plant (100=total damage to plant; 0=no damage to plant), EPHHL” value (rate 250)?
**A.** 0

**Q.** What about the “damage to plant (100=total damage to plant; 0=no damage to plant), EPHHL” value (rate 500) of the same compound?
**A.** 10

**Q.** And the “damage to plant (100=total damage to plant; 0=no damage to plant), GLXMA” value (rate 15)?
**A.** 0

**Q.** And the “damage to plant (100=total damage to plant; 0=no damage to plant), GLXMA” value (rate 30)?
**A.** 0

**Q.** And the “damage to plant (100=total damage to plant; 0=no damage to plant), GLXMA” value (rate 60)?
**A.** 0

**Q.** And the “damage to plant (100=total damage to plant; 0=no damage to plant), GLXMA” value (rate 130)?
**A.** 0

**Q.** What about the “damage to plant (100=total damage to plant; 0=no damage to plant), GLXMA” value (rate 250) of the same compound?
**A.** 0

**Q.** And the “damage to plant (100=total damage to plant; 0=no damage to plant), GLXMA” value (rate 500)?
**A.** 0

**Q.** What about the “damage to plant (100=total damage to plant; 0=no damage to plant), IPOHE” value (rate 15) of the same compound?
**A.** 0

**Q.** What about the “damage to plant (100=total damage to plant; 0=no damage to plant), IPOHE” value (rate 30) of the same compound?
**A.** 0

**Q.** And the “damage to plant (100=total damage to plant; 0=no damage to plant), IPOHE” value (rate 60)?
**A.** 0

**Q.** And the “damage to plant (100=total damage to plant; 0=no damage to plant), IPOHE” value (rate 130)?
**A.** 0

**Q.** And the “damage to plant (100=total damage to plant; 0=no damage to plant), IPOHE” value (rate 250)?
**A.** 0

**Q.** What about the “damage to plant (100=total damage to plant; 0=no damage to plant), IPOHE” value (rate 500) of the same compound?
**A.** 0

**Q.** What about the “damage to plant (100=total damage to plant; 0=no damage to plant), ORYSA” value (rate 15) of the same compound?
**A.** 0

**Q.** And the “damage to plant (100=total damage to plant; 0=no damage to plant), ORYSA” value (rate 30)?
**A.** 0

**Q.** And the “damage to plant (100=total damage to plant; 0=no damage to plant), ORYSA” value (rate 60)?
**A.** 0

**Q.** And the “damage to plant (100=total damage to plant; 0=no damage to plant), ORYSA” value (rate 130)?
**A.** 0

**Q.** And the “damage to plant (100=total damage to plant; 0=no damage to plant), ORYSA” value (rate 250)?
**A.** 0

**Q.** And the “damage to plant (100=total damage to plant; 0=no damage to plant), ORYSA” value (rate 500)?
**A.** 0

**Q.** What about the “damage to plant (100=total damage to plant; 0=no damage to plant), PANMI” value (rate 15) of the same compound?
**A.** 0

**Q.** What about the “damage to plant (100=total damage to plant; 0=no damage to plant), PANMI” value (rate 30) of the same compound?
**A.** 0

**Q.** What about the “damage to plant (100=total damage to plant; 0=no damage to plant), PANMI” value (rate 60) of the same compound?
**A.** 0

**Q.** And the “damage to plant (100=total damage to plant; 0=no damage to plant), PANMI” value (rate 130)?
**A.** 0

**Q.** What about the “damage to plant (100=total damage to plant; 0=no damage to plant), PANMI” value (rate 250) of the same compound?
**A.** 0

**Q.** And the “damage to plant (100=total damage to plant; 0=no damage to plant), PANMI” value (rate 500)?
**A.** 0

**Q.** And the “damage to plant (100=total damage to plant; 0=no damage to plant), SETFA” value (rate 15)?
**A.** 0

**Q.** And the “damage to plant (100=total damage to plant; 0=no damage to plant), SETFA” value (rate 30)?
**A.** 80

**Q.** And the “damage to plant (100=total damage to plant; 0=no damage to plant), SETFA” value (rate 60)?
**A.** 80

**Q.** And the “damage to plant (100=total damage to plant; 0=no damage to plant), SETFA” value (rate 130)?
**A.** 80

**Q.** What about the “damage to plant (100=total damage to plant; 0=no damage to plant), SETFA” value (rate 250) of the same compound?
**A.** 80

**Q.** And the “damage to plant (100=total damage to plant; 0=no damage to plant), SETFA” value (rate 500)?
**A.** 90

**Q.** What about the “damage to plant (100=total damage to plant; 0=no damage to plant), SIDSP” value (rate 15) of the same compound?
**A.** 0

**Q.** What about the “damage to plant (100=total damage to plant; 0=no damage to plant), SIDSP” value (rate 30) of the same compound?
**A.** 0

**Q.** And the “damage to plant (100=total damage to plant; 0=no damage to plant), SIDSP” value (rate 60)?
**A.** 0

**Q.** And the “damage to plant (100=total damage to plant; 0=no damage to plant), SIDSP” value (rate 130)?
**A.** 0

**Q.** What about the “damage to plant (100=total damage to plant; 0=no damage to plant), SIDSP” value (rate 250) of the same compound?
**A.** 0

**Q.** And the “damage to plant (100=total damage to plant; 0=no damage to plant), SIDSP” value (rate 500)?
**A.** 0

**Q.** And the “damage to plant (100=total damage to plant; 0=no damage to plant), SORVU” value (rate 15)?
**A.** 0

**Q.** And the “damage to plant (100=total damage to plant; 0=no damage to plant), SORVU” value (rate 30)?
**A.** 0

**Q.** And the “damage to plant (100=total damage to plant; 0=no damage to plant), SORVU” value (rate 60)?
**A.** 0
